From patent publication US20210347758A1 (Tesaro, Inc., priority 2018, published 2021)
≈ marks a conversion by molar mass, not a printed value. Read-outs that look alike come from different tables or passages of the source.

Key:
physchem = details: for solubility at 24 h: 37 °C, thermodynamic from solid
Method: For each sample, 30 mg of the freebase was weighed into vials (in triplicate) and 1 mL of water or buffer was added. The following buffers (50 mM in each case) used were: • pH 1 25 mL KCl solution (1.49 g dissolved in 100 mL water) and 42.5 mL HCl solution (1.66 mL made up to 100 mL with water) were added together and made up to 100 mL with water; • pH 4.5 anhydrous sodium acetate (1.07 g) was dissolved in water (about 150 mL) before adding 5.9 mL acetic acid solution (11.6 mL glacial acetic acid made up to 100 mL with water). The resulting solution was made up to 500 mL with water; and • pH 6.8 25 mL of KH2PO4 solution (2.72 g dissolved in about 80 mL water and made up to 100 mL with water) and 11.2 mL of NaOH solution (800 mg of sodium hydroxide was dissolved and diluted to 100 mL with water) were added together and made up to 100 mL with water.
(§1) The resulting samples were shaken at 37° C. for 1 hour. […] All samples were then shaken at 37° C. for 23 hours. […] Any solids which were isolated by filtration were assessed by XRPD to determine whether the form of the material had changed.

[1] = solids shaken in water or pH 1 / 4.5 / 6.8 buffer at 37° C.
Method: as §1

[2] = up to 1 mL
Method: Between each addition, the mixture was checked for dissolution and, if no dissolution was apparent, the mixture was heated to about 50° C. and checked again. After 300 μL of solvent had been added, 100 μL aliquots were added sequentially. This procedure was continued until dissolution was observed or until 1 mL of solvent had been added. If no dissolution occurred, the solids were isolated by filtration and an XRPD pattern was collected. If dissolution occurred, the solvent was evaporated and an XRPD pattern was collected on any solid which remained.

[3] = test system: poly (ADP-ribose) polymerase (“PARP”) proteins; details: selective for PARP-1 and PARP-2; Thorsell et al.; cited from earlier work
[4] = test system: BRCA1- and BRCA2-deficient cell lines; details: in vitro; cited from earlier work
[5] = test system: human cancers with deficiencies in BRCA1 and BRCA2 or with homologous recombination deficiency (HRD); details: mutated or wild-type BRCA1/2; cited from earlier work
[6] = for Hygroscopicity: GVS, double cycle
Method: Typically, approximately 10-20 mg of sample was placed into a mesh vapour sorption balance pan and loaded into an IGASorp Moisture Sorption Analyser balance by Hiden Analytical. The sample was subjected to a ramping profile from 40-90% relative humidity (RH) at 10% increments, maintaining the sample at each step until a stable weight had been achieved (98% step completion, minimum step length 30 minutes, maximum step length 60 minutes) at 25° C. After completion of the sorption cycle, the sample was dried using the same procedure to 0% RH, and finally taken back to the starting point of 40% RH. Two cycles were performed. The weight change during the sorption/desorption cycles were plotted, allowing for the hygroscopic nature of the sample to be determined.

[7] = pH 1 buffer (50 mM), shaken at 37° C. for 24 hours in total, average of triplicate
[8] = water, shaken at 37° C. for 24 hours in total, average of triplicate

| Solubility (physchem; [7]) | solubility at 24 h (physchem; pH 4.5 sodium acetate/acetic acid buffer, pH 4.5, aqueous buffer, pH 4.5 buffer (50 mM), shaken at 37° C. for 24 hours in total, average of triplicate) | solubility at 24 h (physchem; pH 6.8 KH2PO4/NaOH buffer, pH 6.8, aqueous buffer, pH 6.8 buffer (50 mM), shaken at 37° C. for 24 hours in total, average of triplicate) | Solubility (physchem; water, Solubility in water, summary statement, conditions not stated) | Solubility (physchem; [8]) | Dissolution in 2-propanol ([2]; 2-propanol, heated to about 50° C.) | Dissolution in ethanol ([2]; ethanol, with heating to about 40° C.) | Solubility (physchem; pH 4.5 buffer (50 mM), shaken at 37° C. for 24 hours in total, average of triplicate) | Solubility (physchem; pH 6.8 buffer (50 mM), shaken at 37° C. for 24 hours in total, average of triplicate) | Hygroscopicity ([6]; listed as Niraparib freebase Form I) | Hygroscopicity ([6]; listed as niraparib freebase Form I) | GVS mass increase ([6]; up to 90% RH, 25° C.) | Solid form after filtration (XRPD) ([1]; listed as crystalline samples) | SMILES | Solid form after filtration (XRPD) ([1]; listed as amorphous samples) | PARP inhibition [3] | Inhibition of proliferation [4] | Tumor growth [5] |
| --- | --- | --- | --- | --- | --- | --- | --- | --- | --- | --- | --- | --- | --- | --- | --- | --- | --- |
| 11800 µg/mL (≈ 36.8 mM) | 13400 µg/mL (≈ 41.8 mM) | 600 µg/mL (≈ 1.87 mM) | ~1000 µg/mL (≈ 3.12 mM) | 800 µg/mL (≈ 2.5 mM) | partially soluble | Complete dissolution | – | – | – | – | – | – | NC(=O)c1cccc2cn(-c3ccc([C@@H]4CCCNC4)cc3)nc12 [Amorphous Form, 2-{4-[(3S)-piperidin-3-yl]phenyl}-2H-indazole-7-carboxamide] | a new crystalline form was obtained (Form V) | – | – | – |
| – | – | – | – | – | – | – | – | – | – | – | – | – | NC(=O)c1cccc2cn(-c3ccc([C@@H]4CCCNC4)cc3)nc12 [Niraparib, 2-{4-[(3S)-piperidin-3-yl]phenyl}-2H-indazole-7-carboxamide] | – | potent inhibitor | inhibits the proliferation | decreases tumor growth |
| 30900 µg/mL (≈ 96.4 mM) | – | – | – | <100 µg/mL | – | – | 11800 µg/mL (≈ 36.8 mM) | 700 µg/mL (≈ 2.18 mM) | non-hygroscopic | non-hydroscopic | about 0.7% | unchanged | NC(=O)c1cccc2cn(-c3ccc([C@@H]4CCCNC4)cc3)nc12 [Crystalline Form I, 2-{4-[(3S)-piperidin-3-yl]phenyl}-2H-indazole-7-carboxamide] | – | – | – | – |
